Read-outs that look alike come from different tables or passages of the source.

Consider 30 molecules from patent US8846710B2, “Method of preferentially inducing the biosynthesis of interferon” (3M Innovative Properties Company, priority 2005, dated 2014).

One data set concerns interferon (α) (IFN-α). The data set is described as follows: Cytokine induction in human cells: IFN-α secreted by PBMC into culture media (ELISA). The format is cell-based. The arrangement: key to Maximal Response (pg/mL) IFN: If any negative values result from background subtraction, the reading is reported as “*”, and is noted as not reliably detectable. The note with it: for Maximal Response IFN / minimal effective concentration: human PBMC; for Maximal Response IFN: median where tested in more than one experiment; for Maximal Response (pg/mL) IFN: maximal response in dose response curve, median; for minimal effective concentration: lowest tested concentration inducing IFN-α over usually 20 pg/mL, median where more than one experiment, read-out: Minimum Effective Concentration (μM) IFN. In outline:
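IFN-α secreted by density-gradient-isolated PBMC (final 2×10^6 cells/mL) was quantified by ELISA after 18–24 h compound exposure at 37 °C, typically 30-0.014 μM in 3-fold steps with ≤1% DMSO. Readings corrected for background and reference-compound variability; lowest concentration above usually 20 pg/mL reported, plus maximal response (pg/mL).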
For orientation: ELISA stands for enzyme-linked immunosorbent assay.

In data set [1] the test system is tumor necrosis factor (α) (TNF-α). The data set is described as follows: Cytokine induction in human cells: TNF-α secreted by PBMC into culture media (ORIGEN M-Series immunoassay). The format is cell-based. Set-up: key to Maximal Response (pg/mL) TNF / Maximal Response TNF: If any negative values result from background subtraction, the reading is reported as “*”, and is noted as not reliably detectable. The note with it: for Maximal Response TNF / minimal effective concentration: human PBMC; for Maximal Response TNF / Maximal Response (pg/mL) TNF: median; for Maximal Response (pg/mL) TNF: maximal response in dose response curve; for minimal effective concentration: lowest tested concentration inducing TNF-α over usually 40 pg/mL, median where more than one experiment, read-out: Minimum Effective Concentration (μM) TNF. In a few lines: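 Secreted TNF-α (pg/mL) was quantified by ORIGEN M-Series immunoassay after 18 to 24 hours culture at 37° C of human PBMC (2×10^6 cells/mL final) with test compound (usually 30-0.014 μM, 3-fold series, DMSO ≤1%). Values were corrected for DMSO or experimental background and a reference-compound ratio, giving a minimum effective concentration.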

The mark [2] stands for this setting: Table 11, * = TNF below experimental background of 40 pg/mL.
The mark [3] stands for this setting: Table 12, * = below the experimental background of 40 pg/mL.
[4] abbreviates: Table 8, background-subtracted, reference-adjusted.
[5] abbreviates: Table 10, * = below experimental background level.

Regarding `CC(C)NC(=O)NC(C)(C)Cn1c(CO)nc2c(N)nc3ccccc3c21` [Example 142, 1-[2-(4-Amino-2-hydroxymethyl-1H-imidazo[4,5-c]quinolin-1-yl)-1,1-dimethylethyl]-3-(1-methylethyl)urea], the “Maximal Response IFN” value in the data set with interferon (α) (IFN-α) (Table 11) is given as 1554 pg/mL. Also, in data set [1] (setting [2]), the “Maximal Response TNF” value is listed as “*”.
Turning to `CC(C)(Cn1c(CO)nc2c(N)nc3cccnc3c21)NC(=O)C1CCCCC1` [Example 143, N-[2-(4-Amino-2-hydroxymethyl-1H-imidazo[4,5-c][1,5]naphthyridin-1-yl)-1,1-dimethylethyl]cyclohexanecarboxamide], in the data set with interferon (α) (IFN-α) (Table 12), the “Maximal Response IFN” value is 1467 pg/mL. In data set [1] (setting [3]), the “Maximal Response TNF” value is reported as 798 pg/mL.
With `CC(C)(Cn1c(CO)nc2c(N)nc3cccnc3c21)NS(C)(=O)=O` [Example 144, N-[2-(4-Amino-2-hydroxymethyl-1H-imidazo[4,5-c][1,5]naphthyridin-1-yl)-1,1-dimethylethyl]methanesulfonamide], the “Maximal Response IFN” value in the data set with interferon (α) (IFN-α) (Table 12) was 1914 pg/mL. For the same molecule, the “Maximal Response TNF” value in data set [1] (setting [3]) amounted to 170 pg/mL.
As for `CS(=O)(=O)NCCCCn1c(CCO)nc2c(N)nc3cccnc3c21` [Example 145, N-{4-{4-Amino-2-(2-hydroxyethyl)-1H-imidazo[4,5-c][1,5]naphthyridin-1-yl]butyl}methanesulfonamide], in the data set with interferon (α) (IFN-α) (Table 12), the “Maximal Response IFN” value is recorded as 3008 pg/mL. Further, the “Maximal Response TNF” value in data set [1] (setting [3]) is recorded as 7 pg/mL.
Turning to `CS(=O)(=O)NCCn1c(CO)nc2c(N)nc3cccnc3c21` [Example 146, N-[2-(4-Amino-2-hydroxymethyl-1H-imidazo[4,5-c][1,5]naphthyridin-1-yl)ethyl]methanesulfonamide], the “Maximal Response IFN” value in the data set with interferon (α) (IFN-α) (Table 12) is recorded as 1520 pg/mL. The “Maximal Response TNF” value in data set [1] (setting [3]) is “*”.
Regarding `CS(=O)(=O)NCCn1c(CCO)nc2c(N)nc3cccnc3c21` [Example 147, N-{2-[4-Amino-2-(2-hydroxyethyl)-1H-imidazo[4,5-c][1,5]naphthyridin-1-yl]ethyl}methanesulfonamide], in the data set with interferon (α) (IFN-α) (Table 12), the “Maximal Response IFN” value is reported as 49 pg/mL. The “Maximal Response TNF” value in data set [1] (setting [3]) is “*”.
On to `CC(C)(O)Cn1c(CO)nc2c(N)nc3cccnc3c21` [Example 148, 1-(4-Amino-2-hydroxymethyl-1H-imidazo[4,5-c][1,5]naphthyridin-1-yl)-2-methylpropan-2-ol], for which the “Maximal Response (pg/mL) IFN” value with interferon (α) (IFN-α) (setting [4]) came out at 3038 pg/mL. The “Maximal Response IFN” value with interferon (α) (IFN-α) (Table 12) stood at 2290 pg/mL. Further, in data set [1] (setting [4]), the “Maximal Response (pg/mL) TNF” value came to 684 pg/mL. For the same molecule, in data set [1] (setting [3]), the “Maximal Response TNF” value was 1316 pg/mL.
The like results for `CC(C)(O)Cn1c(CCO)nc2c(N)nc3cccnc3c21` [Example 149, 1-[4-Amino-2-(2-hydroxyethyl)-1H-imidazo[4,5-c][1,5]naphthyridin-1-yl]-2-methylpropan-2-ol] were, in that order, 1849 pg/mL, 2063 pg/mL, 342 pg/mL and 331 pg/mL.
With `Nc1nc2cc(-c3ccccc3)ccc2c2c1nc(CCO)n2CCCN1CCCC1=O` [Example 156], the minimal effective concentration (in the data set on interferon (α) (IFN-α) (Table 10); in data set [1] (Table 10)) was more than 30 µM throughout. In the data set on interferon (α) (IFN-α) (setting [5]), the “Maximal Response (pg/mL) IFN” value is “*”. The “Maximal Response (pg/mL) TNF” value in data set [1] (setting [5]) was “*”.
On to `CC(C)(O)Cn1c(CCO)nc2c(N)nc3cc(-c4ccccc4)ccc3c21` [Example 157], for which the minimal effective concentration in the data set on interferon (α) (IFN-α) (Table 10) is reported as 0.37 µM. Further, the “Maximal Response (pg/mL) TNF” value in data set [1] (setting [5]) is 67 pg/mL.
For `CC(C)Cn1c(CCO)nc2c(N)nc3cc(-c4cccnc4)ccc3c21` [Example 158] the same measures were 0.37 µM and 42 pg/mL.
`CC(C)Cn1c(CCO)nc2c(N)nc3cc(-c4cncc(CO)c4)ccc3c21` [Example 159]: the results for the minimal effective concentration (in the data set on interferon (α) (IFN-α) (Table 10); in data set [1] (Table 10)) were 0.12 µM and 10 µM, respectively.
With `Nc1nc2cc(-c3cccnc3)ccc2c2c1nc(CCO)n2CCCN1CCCC1=O` [Example 160], the results for the minimal effective concentration (with interferon (α) (IFN-α) (Table 10); in data set [1] (Table 10)) were 30 µM and more than 30 µM, respectively. Further, the “Maximal Response (pg/mL) IFN” value with interferon (α) (IFN-α) (setting [5]) was 109 pg/mL. In addition, in data set [1] (setting [5]), the “Maximal Response (pg/mL) TNF” value is reported as “*”.
As to `Nc1nc2cc(-c3ccncc3)ccc2c2c1nc(CCO)n2CCCN1CCCC1=O` [Example 161], the minimal effective concentration (in the data set with interferon (α) (IFN-α) (Table 10); in data set [1] (Table 10)) was more than 30 µM in each case. Also, in the data set on interferon (α) (IFN-α) (setting [5]), the “Maximal Response (pg/mL) IFN” value is given as “*”. In data set [1] (setting [5]), the “Maximal Response (pg/mL) TNF” value is listed as “*”.
For `CC(C)(O)Cn1c(CO)nc2c(N)nc3cc(-c4cccnc4)ccc3c21` [Example 163], the minimal effective concentration is 0.37 µM in the data set on interferon (α) (IFN-α) (Table 10), more than 30 µM in data set [1] (Table 9) and 10 µM in data set [1] (Table 10). The “Maximal Response (pg/mL) TNF” value in data set [1] (Table 9, * = below experimental background level of 40 pg/mL) was “*”; in data set [1] (setting [5]) it was 51 pg/mL.
Consider `Cc1cccc(-c2ccc3c(c2)nc(N)c2nc(CO)n(CC(C)(C)O)c23)c1` [Example 164], for which the results for the minimal effective concentration (with interferon (α) (IFN-α) (Table 10); in data set [1] (Table 10)) were 30 µM and more than 30 µM, respectively. Besides, the “Maximal Response (pg/mL) IFN” value in the data set with interferon (α) (IFN-α) (setting [5]) was found to be 87 pg/mL. The “Maximal Response (pg/mL) TNF” value in data set [1] (setting [5]) is on record as “*”.
For `Cc1ccc(-c2ccc3c(c2)nc(N)c2nc(CO)n(CC(C)(C)O)c23)cc1` [Example 165], the minimal effective concentration (in the data set on interferon (α) (IFN-α) (Table 10); in data set [1] (Table 10)) was 0.37 µM throughout.
With `CC(C)(O)Cn1c(CO)nc2c(N)nc3cc(-c4cccc(O)c4)ccc3c21` [Example 168], the minimal effective concentration with interferon (α) (IFN-α) (Table 10) was 0.37 µM; in data set [1] (Table 10), 10 µM.
For orientation: melting point means the temperature, or range, at which the solid turns liquid. For the molecule `CC(C)(O)Cn1c(CO)nc2c(N)nc3cc(OCc4cscn4)ccc3c21` [Example 187, 1-[4-Amino-2-hydroxymethyl-7-(thiazol-4-ylmethoxy)-1H-imidazo[4,5-c]quinolin-1-yl]-2-methylpropan-2-ol], the melting point fell in the range of 260 to 262 °C.
On to `CCCNC(=O)NCCCCn1c(CO)nc2c(N)nc3cc(-c4cccnc4)ccc3c21` [Example 195], for which the “Maximal Response (pg/mL) IFN” value in the data set with interferon (α) (IFN-α) (setting [5]) came to 5089 pg/mL. The “Maximal Response (pg/mL) TNF” value in data set [1] (setting [5]) came to 81 pg/mL.
`CCCC(=O)NCCCCn1c(CO)nc2c(N)nc3cc(-c4cccnc4)ccc3c21` [Example 196]: the figures for the minimal effective concentration (in the data set on interferon (α) (IFN-α) (Table 10); in data set [1] (Table 10)) were 0.12 µM and more than 30 µM, respectively.
Consider `Nc1nc2cc(-c3cccnc3)ccc2c2c1nc(CO)n2CCCCNC(=O)NC1CCCC1` [Example 197], for which the “Maximal Response (pg/mL) IFN” value in the data set on interferon (α) (IFN-α) (setting [5]) is 4373 pg/mL. Moreover, the “Maximal Response (pg/mL) TNF” value in data set [1] (setting [5]) came out at 600 pg/mL.
The like results for `Nc1nc2cc(-c3cccnc3)ccc2c2c1nc(CO)n2CCCCNC(=O)C1CCCC1` [Example 198] were, in that order, 2745 pg/mL and 410 pg/mL.
For `CC(C)C(=O)NCCCCn1c(CO)nc2c(N)nc3cc(-c4cccnc4)ccc3c21` [Example 199] the same measures were 5880 pg/mL and 217 pg/mL.
On to `CC(C)(Cn1c(CO)nc2c(N)nc3ccccc3c21)CS(C)(=O)=O` [Example 364, {4-Amino-1-[2,2-dimethyl-3-(methylsulfonyl)propyl]-1H-imidazo[4,5-c]quinolin-2-yl}methanol], for which the “Maximal Response IFN” value in the data set with interferon (α) (IFN-α) (Table 11) is reported as 5343 pg/mL. For the same molecule, in data set [1] (setting [2]), the “Maximal Response TNF” value is on record as 164 pg/mL.
The like results for `CS(=O)(=O)NCCCCn1c(CO)nc2c(N)nc3ccccc3c21` [Example 368, N-[4-(4-amino-2-hydroxymethyl-1H-imidazo[4,5-c]quinolin-1-yl)butyl]methanesulfonamide] were, in that order, 7220 pg/mL and “*”.
With `CC(C)(F)Cn1c(CO)nc2c(N)nc3cccnc3c21` [Example 551, [4-Amino-1-(2-fluoro-2-methylpropyl)-1H-imidazo[4,5-c][1,5]naphthyridin-2-yl]methanol], the “Maximal Response IFN” value with interferon (α) (IFN-α) (Table 12) amounted to 1833 pg/mL. Moreover, the “Maximal Response TNF” value in data set [1] (setting [3]) stood at 1922 pg/mL.
With `CC(C)(F)Cn1c(CCO)nc2c(N)nc3cccnc3c21` [Example 552, 2-[4-Amino-1-(2-fluoro-2-methylpropyl)-1H-imidazo[4,5-c][1,5]naphthyridin-2-yl]ethanol], the “Maximal Response IFN” value with interferon (α) (IFN-α) (Table 12) came out at 1646 pg/mL. Further, the “Maximal Response TNF” value in data set [1] (setting [3]) turned out to be 84 pg/mL.
As to `CC(C)Cn1c(CO)nc2c(N)nc3cccnc3c21` [Example 633, [4-Amino-1-(2-methylpropyl)-1H-imidazo[4,5-c][1,5]naphthyridin-2-yl]methanol], in the data set on interferon (α) (IFN-α) (Table 12), the “Maximal Response IFN” value is 1592 pg/mL. The “Maximal Response TNF” value in data set [1] (setting [3]) was 363 pg/mL.
For `CC(=O)OCCc1nc2c(N)nc3ccccc3c2n1CC(C)C` [Example 634, 2-(4-Amino-1-isobutyl-1H-imidazo[4,5-c]quinolin-2-yl)ethyl acetate], the melting point was 187 to 189 °C.
